Source: the NIST ThermoML archive (doi:10.1021/acs.jced.6b00168)
Numbers after ± are expanded uncertainties.

Assay: mn = molality of the nth substance listed, in mol/kg
Conditions: 100 kPa, Liquid; for speed of sound: Frequency=3 MHz, Sing-around technique in a fixed-path interferometer; for mass density: Vibrating tube method

SMILES: CC(C)C[C@H](NC(=O)CN)C(=O)O [glycyl-L-leucine] + O
- speed of sound (288.15 K, m1 = 0.01036): 1468.4 ± 1.6 m/s
- speed of sound (288.15 K, m1 = 0.02041): 1470.1 ± 1.6 m/s
- speed of sound (288.15 K, m1 = 0.04005): 1473.3 ± 1.6 m/s
- speed of sound (288.15 K, m1 = 0.06009): 1476.6 ± 1.6 m/s
- speed of sound (288.15 K, m1 = 0.08023): 1479.9 ± 1.6 m/s
- speed of sound (288.15 K, m1 = 0.09965): 1483.1 ± 1.6 m/s
- speed of sound (288.15 K, m1 = 0.1502): 1491.4 ± 1.6 m/s
- speed of sound (288.15 K, m1 = 0.2014): 1499.8 ± 1.6 m/s
- mass density (288.15 K, m1 = 0.01036): 999.623 ± 0.23 kg/m3
- mass density (288.15 K, m1 = 0.02041): 1000.14 ± 0.23 kg/m3
- mass density (288.15 K, m1 = 0.04005): 1001.13 ± 0.23 kg/m3
- mass density (288.15 K, m1 = 0.06009): 1002.13 ± 0.24 kg/m3
- mass density (288.15 K, m1 = 0.08023): 1003.08 ± 0.24 kg/m3
- mass density (288.15 K, m1 = 0.09965): 1004.02 ± 0.24 kg/m3
- mass density (288.15 K, m1 = 0.1502): 1006.4 ± 0.24 kg/m3
- mass density (288.15 K, m1 = 0.2014): 1008.79 ± 0.25 kg/m3
- speed of sound (298.15 K, m1 = 0.01036): 1497.4 ± 1.6 m/s
- speed of sound (298.15 K, m1 = 0.02041): 1499 ± 1.6 m/s
- speed of sound (298.15 K, m1 = 0.04005): 1502 ± 1.6 m/s
- speed of sound (298.15 K, m1 = 0.06009): 1505.2 ± 1.6 m/s
- speed of sound (298.15 K, m1 = 0.08023): 1508.3 ± 1.6 m/s
- speed of sound (298.15 K, m1 = 0.09965): 1511.3 ± 1.6 m/s
- speed of sound (298.15 K, m1 = 0.1502): 1519.2 ± 1.6 m/s
- speed of sound (298.15 K, m1 = 0.2014): 1527.1 ± 1.6 m/s
- mass density (298.15 K, m1 = 0.01036): 997.544 ± 0.23 kg/m3
- mass density (298.15 K, m1 = 0.02041): 998.07 ± 0.23 kg/m3
- mass density (298.15 K, m1 = 0.04005): 999.05 ± 0.23 kg/m3
- mass density (298.15 K, m1 = 0.06009): 999.995 ± 0.23 kg/m3
- mass density (298.15 K, m1 = 0.08023): 1000.95 ± 0.24 kg/m3
- mass density (298.15 K, m1 = 0.09965): 1001.9 ± 0.24 kg/m3
- mass density (298.15 K, m1 = 0.1502): 1004.28 ± 0.24 kg/m3
- mass density (298.15 K, m1 = 0.2014): 1006.66 ± 0.25 kg/m3
- speed of sound (308.15 K, m1 = 0.01036): 1521 ± 1.6 m/s
- speed of sound (308.15 K, m1 = 0.02041): 1522.6 ± 1.6 m/s
- speed of sound (308.15 K, m1 = 0.04005): 1525.5 ± 1.6 m/s
- speed of sound (308.15 K, m1 = 0.06009): 1528.5 ± 1.6 m/s
- speed of sound (308.15 K, m1 = 0.08023): 1531.5 ± 1.6 m/s
- speed of sound (308.15 K, m1 = 0.09965): 1534.4 ± 1.6 m/s
- speed of sound (308.15 K, m1 = 0.1502): 1542 ± 1.6 m/s
- speed of sound (308.15 K, m1 = 0.2014): 1549.7 ± 1.6 m/s
- mass density (308.15 K, m1 = 0.01036): 994.554 ± 0.23 kg/m3
- mass density (308.15 K, m1 = 0.02041): 995.045 ± 0.23 kg/m3
- mass density (308.15 K, m1 = 0.04005): 995.995 ± 0.23 kg/m3
- mass density (308.15 K, m1 = 0.06009): 996.94 ± 0.24 kg/m3
- mass density (308.15 K, m1 = 0.08023): 997.866 ± 0.24 kg/m3
- mass density (308.15 K, m1 = 0.09965): 998.802 ± 0.24 kg/m3
- mass density (308.15 K, m1 = 0.1502): 1001.19 ± 0.24 kg/m3
- mass density (308.15 K, m1 = 0.2014): 1003.57 ± 0.25 kg/m3
- speed of sound (318.15 K, m1 = 0.01036): 1537.6 ± 1.6 m/s
- speed of sound (318.15 K, m1 = 0.02041): 1539.1 ± 1.6 m/s
- speed of sound (318.15 K, m1 = 0.04005): 1542 ± 1.6 m/s
- speed of sound (318.15 K, m1 = 0.06009): 1544.9 ± 1.6 m/s
- speed of sound (318.15 K, m1 = 0.08023): 1547.9 ± 1.6 m/s
- speed of sound (318.15 K, m1 = 0.09965): 1550.7 ± 1.6 m/s
- speed of sound (318.15 K, m1 = 0.1502): 1558.2 ± 1.6 m/s
- speed of sound (318.15 K, m1 = 0.2014): 1565.7 ± 1.6 m/s
- mass density (318.15 K, m1 = 0.01036): 990.713 ± 0.23 kg/m3
- mass density (318.15 K, m1 = 0.02041): 991.171 ± 0.23 kg/m3
- mass density (318.15 K, m1 = 0.04005): 992.11 ± 0.23 kg/m3
- mass density (318.15 K, m1 = 0.06009): 993.02 ± 0.24 kg/m3
- mass density (318.15 K, m1 = 0.08023): 993.927 ± 0.24 kg/m3
- mass density (318.15 K, m1 = 0.09965): 994.85 ± 0.24 kg/m3
- mass density (318.15 K, m1 = 0.1502): 997.236 ± 0.24 kg/m3
- mass density (318.15 K, m1 = 0.2014): 999.61 ± 0.24 kg/m3

SMILES: CC(C)C[C@H](N)C(=O)O [L-leucine] + O
- speed of sound (288.15 K, m1 = 0.00991): 1468 ± 1.6 m/s
- speed of sound (288.15 K, m1 = 0.02042): 1469.3 ± 1.6 m/s
- speed of sound (288.15 K, m1 = 0.04026): 1471.8 ± 1.6 m/s
- speed of sound (288.15 K, m1 = 0.06014): 1474.2 ± 1.6 m/s
- speed of sound (288.15 K, m1 = 0.0802): 1476.7 ± 1.6 m/s
- speed of sound (288.15 K, m1 = 0.1002): 1479.2 ± 1.6 m/s
- speed of sound (288.15 K, m1 = 0.1246): 1482.3 ± 1.6 m/s
- speed of sound (288.15 K, m1 = 0.1502): 1485.5 ± 1.6 m/s
- mass density (288.15 K, m1 = 0.00991): 999.363 ± 0.23 kg/m3
- mass density (288.15 K, m1 = 0.02042): 999.615 ± 0.23 kg/m3
- mass density (288.15 K, m1 = 0.04026): 1000.09 ± 0.23 kg/m3
- mass density (288.15 K, m1 = 0.06014): 1000.6 ± 0.23 kg/m3
- mass density (288.15 K, m1 = 0.0802): 1001.07 ± 0.23 kg/m3
- mass density (288.15 K, m1 = 0.1002): 1001.57 ± 0.23 kg/m3
- mass density (288.15 K, m1 = 0.1246): 1002.13 ± 0.23 kg/m3
- mass density (288.15 K, m1 = 0.1502): 1002.71 ± 0.23 kg/m3
- speed of sound (298.15 K, m1 = 0.00991): 1497 ± 1.6 m/s
- speed of sound (298.15 K, m1 = 0.02042): 1498.2 ± 1.6 m/s
- speed of sound (298.15 K, m1 = 0.04026): 1500.4 ± 1.6 m/s
- speed of sound (298.15 K, m1 = 0.06014): 1502.6 ± 1.6 m/s
- speed of sound (298.15 K, m1 = 0.0802): 1504.9 ± 1.6 m/s
- speed of sound (298.15 K, m1 = 0.1002): 1507.1 ± 1.6 m/s
- speed of sound (298.15 K, m1 = 0.1246): 1509.8 ± 1.6 m/s
- speed of sound (298.15 K, m1 = 0.1502): 1512.7 ± 1.6 m/s
- mass density (298.15 K, m1 = 0.00991): 997.29 ± 0.23 kg/m3
- mass density (298.15 K, m1 = 0.02042): 997.535 ± 0.23 kg/m3
- mass density (298.15 K, m1 = 0.04026): 998.005 ± 0.23 kg/m3
- mass density (298.15 K, m1 = 0.06014): 998.476 ± 0.23 kg/m3
- mass density (298.15 K, m1 = 0.0802): 998.929 ± 0.23 kg/m3
- mass density (298.15 K, m1 = 0.1002): 999.402 ± 0.23 kg/m3
- mass density (298.15 K, m1 = 0.1246): 999.979 ± 0.23 kg/m3
- mass density (298.15 K, m1 = 0.1502): 1000.56 ± 0.23 kg/m3
- speed of sound (308.15 K, m1 = 0.00991): 1520.5 ± 1.6 m/s
- speed of sound (308.15 K, m1 = 0.02042): 1521.5 ± 1.6 m/s
- speed of sound (308.15 K, m1 = 0.04026): 1523.5 ± 1.6 m/s
- speed of sound (308.15 K, m1 = 0.06014): 1525.5 ± 1.6 m/s
- speed of sound (308.15 K, m1 = 0.0802): 1527.5 ± 1.6 m/s
- speed of sound (308.15 K, m1 = 0.1002): 1529.5 ± 1.6 m/s
- speed of sound (308.15 K, m1 = 0.1246): 1532 ± 1.6 m/s
- speed of sound (308.15 K, m1 = 0.1502): 1534.6 ± 1.6 m/s
- mass density (308.15 K, m1 = 0.00991): 994.279 ± 0.23 kg/m3
- mass density (308.15 K, m1 = 0.02042): 994.535 ± 0.23 kg/m3
- mass density (308.15 K, m1 = 0.04026): 994.994 ± 0.23 kg/m3
- mass density (308.15 K, m1 = 0.06014): 995.441 ± 0.23 kg/m3
- mass density (308.15 K, m1 = 0.0802): 995.893 ± 0.23 kg/m3
- mass density (308.15 K, m1 = 0.1002): 996.345 ± 0.23 kg/m3
- mass density (308.15 K, m1 = 0.1246): 996.896 ± 0.23 kg/m3
- mass density (308.15 K, m1 = 0.1502): 997.446 ± 0.23 kg/m3
- speed of sound (318.15 K, m1 = 0.00991): 1537 ± 1.6 m/s
- speed of sound (318.15 K, m1 = 0.02042): 1538 ± 1.6 m/s
- speed of sound (318.15 K, m1 = 0.04026): 1539.8 ± 1.6 m/s
- speed of sound (318.15 K, m1 = 0.06014): 1541.7 ± 1.6 m/s
- speed of sound (318.15 K, m1 = 0.0802): 1543.5 ± 1.6 m/s
- speed of sound (318.15 K, m1 = 0.1002): 1545.3 ± 1.6 m/s
- speed of sound (318.15 K, m1 = 0.1246): 1547.6 ± 1.6 m/s
- speed of sound (318.15 K, m1 = 0.1502): 1550 ± 1.6 m/s
- mass density (318.15 K, m1 = 0.00991): 990.433 ± 0.23 kg/m3
- mass density (318.15 K, m1 = 0.02042): 990.663 ± 0.23 kg/m3
- mass density (318.15 K, m1 = 0.04026): 991.098 ± 0.23 kg/m3
- mass density (318.15 K, m1 = 0.06014): 991.533 ± 0.23 kg/m3
- mass density (318.15 K, m1 = 0.0802): 991.972 ± 0.23 kg/m3
- mass density (318.15 K, m1 = 0.1002): 992.41 ± 0.23 kg/m3
- mass density (318.15 K, m1 = 0.1246): 992.945 ± 0.23 kg/m3
- mass density (318.15 K, m1 = 0.1502): 993.506 ± 0.23 kg/m3
